Reference: PubChem BioAssay (NCI)
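Test compounds were applied to cells in 96-well plates for 48 hours at 5 doses. TGI marks complete inhibition of growth.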

Key:
Assay in all cases: growth of human tumour cells (NCI), 48 h
786-0 renal = test system: 786-0 renal
A498 renal = test system: A498 renal
ACHN renal = test system: ACHN renal
CCRF-CEM leukemia = test system: CCRF-CEM leukemia
DLD-1 colon = test system: DLD-1 colon
DMS 114 small cell lung = test system: DMS 114 small cell lung
EKVX NSCLC = test system: EKVX NSCLC
HCC-2998 colon = test system: HCC-2998 colon
HCT-116 colon = test system: HCT-116 colon
HCT-15 colon = test system: HCT-15 colon
HOP-62 NSCLC = test system: HOP-62 NSCLC
HT29 colon = test system: HT29 colon
K-562 leukemia = test system: K-562 leukemia
KM12 colon = test system: KM12 colon
KM20L2 colon = test system: KM20L2 colon
LOX IMVI melanoma = test system: LOX IMVI melanoma
LXFL 529 NSCLC = test system: LXFL 529 NSCLC
M14 melanoma = test system: M14 melanoma
M19-MEL melanoma = test system: M19-MEL melanoma
MALME-3M melanoma = test system: MALME-3M melanoma
MOLT-4 leukemia = test system: MOLT-4 leukemia
NCI-H23 lung = test system: NCI-H23 lung
NCI-H460 lung = test system: NCI-H460 lung
NCI-H522 lung = test system: NCI-H522 lung
OVCAR-3 ovarian = test system: OVCAR-3 ovarian
OVCAR-4 ovarian = test system: OVCAR-4 ovarian
OVCAR-5 ovarian = test system: OVCAR-5 ovarian
OVCAR-8 ovarian = test system: OVCAR-8 ovarian
RPMI-8226 leukemia = test system: RPMI-8226 leukemia
RXF 393 renal = test system: RXF 393 renal
RXF-631 renal = test system: RXF-631 renal
SF-268 CNS = test system: SF-268 CNS
SF-295 CNS = test system: SF-295 CNS
SF-539 CNS = test system: SF-539 CNS
SK-MEL-28 melanoma = test system: SK-MEL-28 melanoma
SK-OV-3 ovarian = test system: SK-OV-3 ovarian
SN12C renal = test system: SN12C renal
SNB-19 CNS = test system: SNB-19 CNS
SNB-75 CNS = test system: SNB-75 CNS
SNB-78 CNS = test system: SNB-78 CNS
SR leukemia = test system: SR leukemia
TK-10 renal = test system: TK-10 renal
U251 CNS = test system: U251 CNS
UACC-257 melanoma = test system: UACC-257 melanoma
UACC-62 melanoma = test system: UACC-62 melanoma
UO-31 renal = test system: UO-31 renal
XF 498 CNS = test system: XF 498 CNS

Measured: TGI

OCC(O)C(OC1OC(CO)C(O)C(O)C1O)c1nn(-c2ccc(Cl)cc2)c2nc3cc(Cl)ccc3nc12 (configuration not stated)
> 100 µM: all assays above
